From patent US20090075987A1, “ALKYLACETYLENE SUBSTITUTED ACYLTRYPTOPHANOLS” (priority 2007, published 2009) come the findings set out here.

In the assay the target is T1, human FSH receptor (Homo sapiens, UniProt P23945).
T1 construct: expressed in transfected cells; host or cells: CHO cells (hFSHR clone 16)
T1 sequence (P23945 18-695): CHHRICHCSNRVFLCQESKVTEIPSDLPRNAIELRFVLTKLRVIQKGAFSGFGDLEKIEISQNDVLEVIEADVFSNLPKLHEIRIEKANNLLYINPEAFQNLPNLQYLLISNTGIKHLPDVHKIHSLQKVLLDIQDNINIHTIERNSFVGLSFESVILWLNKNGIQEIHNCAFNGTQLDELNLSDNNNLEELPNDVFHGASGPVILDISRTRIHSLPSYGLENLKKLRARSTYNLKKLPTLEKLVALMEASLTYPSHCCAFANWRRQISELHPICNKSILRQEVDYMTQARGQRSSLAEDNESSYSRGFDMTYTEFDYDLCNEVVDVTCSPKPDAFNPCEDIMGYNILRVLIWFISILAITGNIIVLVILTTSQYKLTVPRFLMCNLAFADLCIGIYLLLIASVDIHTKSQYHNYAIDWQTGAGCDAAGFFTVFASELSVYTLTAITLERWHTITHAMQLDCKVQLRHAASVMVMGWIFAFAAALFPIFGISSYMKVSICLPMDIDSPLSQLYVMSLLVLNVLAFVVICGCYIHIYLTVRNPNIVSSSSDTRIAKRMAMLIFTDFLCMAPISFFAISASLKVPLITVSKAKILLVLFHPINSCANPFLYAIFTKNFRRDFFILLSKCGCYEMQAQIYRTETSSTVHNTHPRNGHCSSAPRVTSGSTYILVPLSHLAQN
Nature of the assay: HTRF assay for measuring cAMP in cells. The assay is classed as cell-based. To be noted: hFSHR clone 16 cells (CHO cells stably transfected with the human FSH receptor); in the presence of 1e-9 mol/l hFSH; 37° C. for 2 h; read-out: IC50 (FSH-antagonistic effect in the HTRF assay). On the procedure: HTRF Assay for Measuring cAMP in Cells
The method is based on a competitive immunoassay between native cAMP, which has been produced by the cells, and cAMP which is labelled with XL665. The tracer binding was visualized by a monoclonal antibody, anti-cAMP labelled with cryptate [HTRF=homogeneous time-resolved fluorescence].
The specific signal is inversely proportional to the cAMP concentration of the samples employed.
The 665 nm/620 nm fluorescence ratio was evaluated.
The following material was used: 96-well plates for the tissue culture, 96-well plates with black edge and black base (e.g. Fluotrac 600 from Greiner), 96-well plates for the substance dilutions of polypropylene and cAMP Femtomolar (4000 wells Kit, CIS Bio International # 62AM1PEC).
The following reagents were used: BSA (bovine serum albumin) Fraction V protease-free, IBMX (3-isobutyl-1-methylxanthine), hFSH (human follicle stimulating hormone), Triton X-100 analytical grade, potassium fluoride analytical grade, G 418 (Geneticin) and Accutase.
Buffer 1 (washing and testing buffer) contained PBS, 1 mM CaCl2, 1 mM MgCl2, 0.2% glucose; 0.1% BSA, 1 mM IBMX. Buffer 2 (2× lysis buffer) contained 1% Triton X-100 in PBS (without CaCl2 and MgCl2). Buffer 3 (assay buffer) contained 50 mM potassium phosphate buffer (pH 7.0); 800 mM potassium fluoride; 0.2% BSA (always added fresh).
On day 1, the cells were seeded in 96-well plates (3×10^4 cells per well hFSHR clone 16 cells (CHO cells stably transfected with the human FSH receptor in 150 μl of medium). The next day, test substance dilutions were made up. For this purpose, all the substances were diluted in ice-cold buffer 1 (with or without hFSH), and the substance dilutions were placed on ice until applied to the cells.
The cell supernatant was then aspirated off, and the cells were washed 2× with 200 μl of buffer 1. The cells were treated with 60 μl of the appropriate substance concentrations at 37° C. for 2 h. The cells were then lysed with 60 μl of buffer 2 (put onto the supernatant) (on a plate shaker at RT for 30 min).
The test conjugates (XL-665 and anti-cAMP cryptate) were diluted in buffer 3 in accordance with the manufacturers' information. The actual mixture for measurement was pipetted into a black 96-well plate (in each case 15 μl of the cell lysate diluted with 35 μl of buffer 1; firstly 25 μl of XL-665 conjugate were pipetted and, after 10 min, 25 μl of the anti-cAMP cryptate were added). This is followed by incubation at RT for 90 minutes. The measurement was carried out in a PheraStar (BMG).
Tissue Culture Conditions
1) hFSHr clone 16 Ham's F12 • PSG • 10% FCS • 700 μg/ml G 418 (Geneticin) from PAA.
Dose-effect curve (hFSH) for the human receptor: 1e-8, 3e-9, 1e-9, 3e-10, 1e-10, 3e-11, 1e-11, 3e-12 mol/l.
The test substances were employed in suitable dilutions in the absence (test for agonism) and in the presence of 1e-9 mol/l hFSH.
The values of the well ratio were averaged and then entered directly in SigmaPlot versus the concentrations. The maximum and minimum values were determined for each plate, and half the difference is to be regarded as IC50.
On the technique in general: Time-resolved FRET reads energy transfer from a long-lived donor to a nearby acceptor.
The IC50 is the concentration that gives 50% inhibition. As to `CC(C)Oc1ccc(C#CC(C)(C)C)cc1C(=O)N[C@@H](CO)Cc1c[nH]c2ccccc12` [Example 3, 5-(3,3-Dimethyl-but-1-ynyl)-N-[(R)-1-hydroxy-methyl-2-(1H-indol-3-yl)-ethyl]-2-isopropoxy-benzamide], the IC50 amounted to 600 nM. Under `CC(C)Oc1ccc(C#CCN2CCS(=O)(=O)CC2)cc1C(=O)N[C@@H](CO)Cc1c[nH]c2ccccc12` [Example 5, 5-[3-(1,1-Dioxo-1-lambda*6*-thiomorpho-lin-4-yl)-prop-1-ynyl]-N-[(R)-2-hydroxy-1-(1H-indol-3-ylmethyl)-ethyl]-2-isopropoxy-benzamide] stands 4500 nM. The value for `Cc1ccc(NC(=O)NCC#Cc2ccc(OC(C)C)c(C(=O)N[C@@H](CO)Cc3c[nH]c4ccccc34)c2)cc1` [Example 7, N-[(R)-1-Hydroxy-methyl-2-(1H-indol-3-yl)-ethyl]-2-isopropoxy-5-[3-(3-p-tolyl-ureido)-prop-1-ynyl]-benzamide] was 200 nM; that for `CC(C)Oc1ccc(C#CCCCO)cc1C(=O)N[C@@H](CO)Cc1c[nH]c2ccccc12` [Example 8, N-[(R)-1-Hydroxy-methyl-2-(1H-indol-3-yl)-ethyl]-5-(5-hydroxy-pent-1-ynyl)-2-iso-propoxy-benzamide] was 500 nM; that for `CNC(=O)N(C)CC#Cc1ccc(OC(C)C)c(C(=O)N[C@@H](CO)Cc2c[nH]c3ccccc23)c1` [Example 10, 5-[3-(1,3-Dimethyl-ureido)-prop-1-ynyl]-N-[(R)-1-hydroxymethyl-2-(1H-indol-3-yl)-ethyl]-2-isopropoxy-benzamide] was 6000 nM.
